Like-named read-outs stand apart in the source and are kept apart here.
Assays:
[1] = biological target: human Gal-1 (hGal-1) (Homo sapiens, UniProt P09382); assay: Competitive binding assay: biotinylated hGal-1 binding to microplate-adsorbed asialofetuin (ASF), spectrophotometric; conditions: hGal-1 binding to asialofetuin; Table 15; R and S epimers of selected Examples also listed; read-out: IC50 (Galectin-1 inhibition)
Method in brief: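 Spectrophotometric competition readout with ABTS after streptavidin-peroxidase (80 ng/mL, 1 h, 4 °C) detection of bound biotinylated hGal-1.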

[2] = biological target: biotinylated human Gal-3 (hGal-3) (Homo sapiens, UniProt P17931); assay: Competitive binding assay: biotinylated hGal-3 binding to microplate-adsorbed asialofetuin (ASF), spectrophotometric; conditions: Gal-3 inhibition, read-out: IC50
Sequence of biotinylated human Gal-3 (hGal-3) (P17931 whole entry): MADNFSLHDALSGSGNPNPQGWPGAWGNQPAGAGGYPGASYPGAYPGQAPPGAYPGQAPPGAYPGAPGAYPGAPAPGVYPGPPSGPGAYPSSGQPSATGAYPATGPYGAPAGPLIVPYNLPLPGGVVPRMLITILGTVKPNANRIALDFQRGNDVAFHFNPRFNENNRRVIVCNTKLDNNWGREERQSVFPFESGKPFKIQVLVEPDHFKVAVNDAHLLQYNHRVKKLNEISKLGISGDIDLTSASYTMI
Method in brief: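 Serially diluted compounds competed with asialofetuin on the plate for biotinylated human Gal-3 during a 3 h incubation at 4° C. Streptavidin-peroxidase with ABTS gave the spectrophotometric signal. IC50 values were averaged over repeat runs.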

Sequence of human Gal-1 (hGal-1) (P09382 whole entry): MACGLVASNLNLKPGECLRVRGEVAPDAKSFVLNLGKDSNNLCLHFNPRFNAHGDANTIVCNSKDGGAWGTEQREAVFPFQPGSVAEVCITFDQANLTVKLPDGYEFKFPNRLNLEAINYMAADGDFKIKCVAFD

Row | SMILES | IC50 [1] [nM] | IC50 ([2]; Table 5) [nM] | IC50 ([2]; Table 4) [nM] | IC50 ([2]; Table 2) [nM]
1 | CN(CC(C)(C)F)C(=O)C(S[C@@H]1O[C@H](CO)[C@H](O)[C@H](n2cc(-c3cc(F)c(F)c(F)c3)nn2)[C@H]1O)C1(O)CCCCC1 (stereo partly drawn) [Example 2.39.222., 2-(((2S,3R,4S,5R,6R)-3,5-Dihydroxy-6-(hydroxymethyl)-4-(4-(3,4,5-trifluorophenyl)-1H-1,2,3-triazol-1-yl)tetrahydro-2H-pyran-2-yl)thio)-N-(2-fluoro-2-methylpropyl)-2-(1-hydroxycyclohexyl)-N-methylacetamide] | 120 | 50 | – | –
2 | CN(CC(C)(C)F)C(=O)[C@H](S[C@@H]1O[C@H](CO)[C@H](O)[C@H](n2cc(-c3cc(F)c(F)c(F)c3)nn2)[C@H]1O)C1(O)CCCCC1 [Example 2.39.222R., (R)-2-(((2S,3R,4S,5R,6R)-3,5-Dihydroxy-6-(hydroxymethyl)-4-(4-(3,4,5-trifluorophenyl)-1H-1,2,3-triazol-1-yl)tetrahydro-2H-pyran-2-yl)thio)-N-(2-fluoro-2-methylpropyl)-2-(1-hydroxycyclohexyl)-N-methylacetamide] | 38100 | 10200 | – | –
3 | CN(CC(C)(C)F)C(=O)[C@@H](S[C@@H]1O[C@H](CO)[C@H](O)[C@H](n2cc(-c3cc(F)c(F)c(F)c3)nn2)[C@H]1O)C1(O)CCCCC1 [Example 2.39.222S., (S)-2-(((2S,3R,4S,5R,6R)-3,5-Dihydroxy-6-(hydroxymethyl)-4-(4-(3,4,5-trifluorophenyl)-1H-1,2,3-triazol-1-yl)tetrahydro-2H-pyran-2-yl)thio)-N-(2-fluoro-2-methylpropyl)-2-(1-hydroxycyclohexyl)-N-methylacetamide] | 90 | 20 | – | –
4 | CN1CCC(O)(C(S[C@@H]2O[C@H](CO)[C@H](O)[C@H](n3cc(-c4cc(F)c(F)c(F)c4)nn3)[C@H]2O)C(=O)N(C)Cc2ccccc2)CC1 (stereo partly drawn) [Example 2.40.207., N-Benzyl-2-(((2S,3R,4S,5R,6R)-3,5-dihydroxy-6-(hydroxymethyl)-4-(4-(3,4,5-trifluorophenyl)-1H-1,2,3-triazol-1-yl)tetrahydro-2H-pyran-2-yl)thio)-2-(4-hydroxy-1-methylpiperidin-4-yl)-N-methylacetamide] | 590 | – | 90 | –
5 | CN1CCC(O)(C(S[C@@H]2O[C@H](CO)[C@H](O)[C@H](n3cc(-c4cc(F)c(F)c(F)c4)nn3)[C@H]2O)C(=O)N2CCCCC2)CC1 (stereo partly drawn) [Example 2.40.208., 2-(((2S,3R,4S,5R,6R)-3,5-Dihydroxy-6-(hydroxymethyl)-4-(4-(3,4,5-trifluorophenyl)-1H-1,2,3-triazol-1-yl)tetrahydro-2H-pyran-2-yl)thio)-2-(4-hydroxy-1-methylpiperidin-4-yl)-1-(piperidin-1-yl)ethan-1-one] | 50 | – | 30 | –
6 | CN1CCC(O)(C(S[C@@H]2O[C@H](CO)[C@H](O)[C@H](n3cc(-c4cc(F)c(F)c(F)c4)nn3)[C@H]2O)C(=O)N2CCc3ccccc32)CC1 (stereo partly drawn) [Example 2.40.209., 2-(((2S,3R,4S,5R,6R)-3,5-Dihydroxy-6-(hydroxymethyl)-4-(4-(3,4,5-trifluorophenyl)-1H-1,2,3-triazol-1-yl)tetrahydro-2H-pyran-2-yl)thio)-2-(4-hydroxy-1-methylpiperidin-4-yl)-1-(indolin-1-yl)ethan-1-one] | 230 | – | 120 | –
7 | CC(C)CN(C)C(=O)C(S[C@@H]1O[C@H](CO)[C@H](O)[C@H](n2cc(-c3cc(F)c(F)c(F)c3)nn2)[C@H]1O)C1(O)CCOCC1 (stereo partly drawn) [Example 2.41.200., 2-(((2S,3R,4S,5R,6R)-3,5-Dihydroxy-6-(hydroxymethyl)-4-(4-(3,4,5-trifluorophenyl)-1H-1,2,3-triazol-1-yl)tetrahydro-2H-pyran-2-yl)thio)-2-(4-hydroxytetrahydro-2H-pyran-4-yl)-N-isobutyl-N-methylacetamide] | 260 | – | – | 60
8 | CC(C)CN(C)C(=O)[C@H](S[C@@H]1O[C@H](CO)[C@H](O)[C@H](n2cc(-c3cc(F)c(F)c(F)c3)nn2)[C@H]1O)C1(O)CCOCC1 [Example 2.41.200R., (R)-2-(((2S,3R,4S,5R,6R)-3,5-Dihydroxy-6-(hydroxymethyl)-4-(4-(3,4,5-trifluorophenyl)-1H-1,2,3-triazol-1-yl)tetrahydro-2H-pyran-2-yl)thio)-2-(4-hydroxytetrahydro-2H-pyran-4-yl)-N-isobutyl-N-methylacetamide] | 10900 | – | – | 4010
9 | CC(C)CN(C)C(=O)[C@@H](S[C@@H]1O[C@H](CO)[C@H](O)[C@H](n2cc(-c3cc(F)c(F)c(F)c3)nn2)[C@H]1O)C1(O)CCOCC1 [Example 2.41.200S., (S)-2-(((2S,3R,4S,5R,6R)-3,5-Dihydroxy-6-(hydroxymethyl)-4-(4-(3,4,5-trifluorophenyl)-1H-1,2,3-triazol-1-yl)tetrahydro-2H-pyran-2-yl)thio)-2-(4-hydroxytetrahydro-2H-pyran-4-yl)-N-isobutyl-N-methylacetamide] | 110 | – | – | 50
10 | CN(C)C(=O)C(S[C@@H]1O[C@H](CO)[C@H](O)[C@H](n2cc(-c3cc(F)c(F)c(F)c3)nn2)[C@H]1O)C1(O)CCOCC1 (stereo partly drawn) [Example 2.41.201., 2-(((2S,3R,4S,5R,6R)-3,5-Dihydroxy-6-(hydroxymethyl)-4-(4-(3,4,5-trifluorophenyl)-1H-1,2,3-triazol-1-yl)tetrahydro-2H-pyran-2-yl)thio)-2-(4-hydroxytetrahydro-2H-pyran-4-yl)-N,N-dimethylacetamide] | 1800 | – | 180 | –
11 | CN(C)C(=O)[C@H](S[C@@H]1O[C@H](CO)[C@H](O)[C@H](n2cc(-c3cc(F)c(F)c(F)c3)nn2)[C@H]1O)C1(O)CCOCC1 [Example 2.41.201R., (R)-2-(((2S,3R,4S,5R,6R)-3,5-Dihydroxy-6-(hydroxymethyl)-4-(4-(3,4,5-trifluorophenyl)-1H-1,2,3-triazol-1-yl)tetrahydro-2H-pyran-2-yl)thio)-2-(4-hydroxytetrahydro-2H-pyran-4-yl)-N,N-dimethylacetamide] | > 100000 | – | 4100 | –
12 | CN(C)C(=O)[C@@H](S[C@@H]1O[C@H](CO)[C@H](O)[C@H](n2cc(-c3cc(F)c(F)c(F)c3)nn2)[C@H]1O)C1(O)CCOCC1 [Example 2.41.201S., (S)-2-(((2S,3R,4S,5R,6R)-3,5-Dihydroxy-6-(hydroxymethyl)-4-(4-(3,4,5-trifluorophenyl)-1H-1,2,3-triazol-1-yl)tetrahydro-2H-pyran-2-yl)thio)-2-(4-hydroxytetrahydro-2H-pyran-4-yl)-N,N-dimethylacetamide] | 210 | – | 60 | –
13 | CCN(CC)C(=O)C(S[C@@H]1O[C@H](CO)[C@H](O)[C@H](n2cc(-c3cc(F)c(F)c(F)c3)nn2)[C@H]1O)C1(O)CCOCC1 (stereo partly drawn) [Example 2.41.202., 2-(((2S,3R,4S,5R,6R)-3,5-Dihydroxy-6-(hydroxymethyl)-4-(4-(3,4,5-trifluorophenyl)-1H-1,2,3-triazol-1-yl)tetrahydro-2H-pyran-2-yl)thio)-N,N-diethyl-2-(4-hydroxytetrahydro-2H-pyran-4-yl)acetamide] | 110 | – | 50 | –
14 | CCN(C)C(=O)C(S[C@@H]1O[C@H](CO)[C@H](O)[C@H](n2cc(-c3cc(F)c(F)c(F)c3)nn2)[C@H]1O)C1(O)CCOCC1 (stereo partly drawn) [Example 2.41.203., 2-(((2S,3R,4S,5R,6R)-3,5-Dihydroxy-6-(hydroxymethyl)-4-(4-(3,4,5-trifluorophenyl)-1H-1,2,3-triazol-1-yl)tetrahydro-2H-pyran-2-yl)thio)-N-ethyl-2-(4-hydroxytetrahydro-2H-pyran-4-yl)-N-methylacetamide] | 420 | 90 | – | –
15 | CCN(C)C(=O)[C@H](S[C@@H]1O[C@H](CO)[C@H](O)[C@H](n2cc(-c3cc(F)c(F)c(F)c3)nn2)[C@H]1O)C1(O)CCOCC1 [Example 2.41.203R., (R)-2-(((2S,3R,4S,5R,6R)-3,5-Dihydroxy-6-(hydroxymethyl)-4-(4-(3,4,5-trifluorophenyl)-1H-1,2,3-triazol-1-yl)tetrahydro-2H-pyran-2-yl)thio)-N-ethyl-2-(4-hydroxytetrahydro-2H-pyran-4-yl)-N-methylacetamide] | > 39800 | 4430 | – | –
16 | CCN(C)C(=O)[C@@H](S[C@@H]1O[C@H](CO)[C@H](O)[C@H](n2cc(-c3cc(F)c(F)c(F)c3)nn2)[C@H]1O)C1(O)CCOCC1 [Example 2.41.203S., (S)-2-(((2S,3R,4S,5R,6R)-3,5-Dihydroxy-6-(hydroxymethyl)-4-(4-(3,4,5-trifluorophenyl)-1H-1,2,3-triazol-1-yl)tetrahydro-2H-pyran-2-yl)thio)-N-ethyl-2-(4-hydroxytetrahydro-2H-pyran-4-yl)-N-methylacetamide] | 67 | 30 | – | –
17 | CC1CCN1C(=O)C(S[C@@H]1O[C@H](CO)[C@H](O)[C@H](n2cc(-c3cc(F)c(F)c(F)c3)nn2)[C@H]1O)C1(O)CCOCC1 (stereo partly drawn) [Example 2.41.204., 2-(((2S,3R,4S,5R,6R)-3,5-Dihydroxy-6-(hydroxymethyl)-4-(4-(3,4,5-trifluorophenyl)-1H-1,2,3-triazol-1-yl)tetrahydro-2H-pyran-2-yl)thio)-2-(4-hydroxytetrahydro-2H-pyran-4-yl)-1-(2-methylazetidin-1-yl)ethan-1-one] | 950 | – | 210 | –
18 | CC1CN(C(=O)[C@H](S[C@@H]2O[C@H](CO)[C@H](O)[C@H](n3cc(-c4cc(F)c(F)c(F)c4)nn3)[C@H]2O)C2(O)CCOCC2)C1 [Example 2.41.205R., (R)-2-(((2S,3R,4S,5R,6R)-3,5-Dihydroxy-6-(hydroxymethyl)-4-(4-(3,4,5-trifluorophenyl)-1H-1,2,3-triazol-1-yl)tetrahydro-2H-pyran-2-yl)thio)-2-(4-hydroxytetrahydro-2H-pyran-4-yl)-1-(3-methylazetidin-1-yl)ethan-1-one] | 4900 | – | 1000 | –

Reference: patent US12410208B2, “(2-acetamidyl)thio-beta-D-galactopyranoside derivatives” (Idorsia Pharmaceuticals Ltd, priority 2020, dated 2025)
